Test results taken from US9120805B2, “Substituted pyrrolo[1,2-A]pyrazin-1-ones and pyrazolo[1,5-A]pyrazin-4-ones as inhibitors of tankyrase and poly(ADP-ribose)polymerase activity” (Merck Patent GmbH, priority 2012, dated 2015).
Where a name gives a salt, the structure may show the parent alone.

Legend:
[1] = target: T1, GST-tagged Tankyrase-1 (1023-1327 aa) (Homo sapiens, UniProt O95271); assay: Tankyrase 1 autoparsylation assay (HTRF enzyme assay); type: biochemical
T1 construct: GST-tagged Tankyrase-1 (1023-1327 aa)
Procedure: (§1) Biochemical Activity Testing of Tankyrase 1 and 2: Autoparsylation Assay
(§2) The autoparsylation assay is run in two steps: the enzymatic reaction in which GST-tagged Tankyrase-1, resp Tankyrase-2 transferred biotinylated ADP-ribose to itself from biotinylated NAD as co-substrate and the detection reaction where a time resolved FRET between cryptate labelled anti-GST bound to the GST tag of the enzyme and Xlent® labelled-streptavidin bound the biotin-parsylation residue is analysed. The autoparsylation activity was detectable directly via the increase in HTRF signal.
(§3) The autoparsylation assay is performed as 384-well HTRF® (Cisbio, Codolet, France) assay format in Greiner low volume nb 384-well microtiter plates and is used for high throughput screen. 250 nM GST-tagged Tankyrase-1 (1023-1327 aa), respectively about 250 nM GST-tagged Tankyrase-2 (873-1166 aa) and 5 μM bio-NAD (Biolog, Life science Inst., Bremen, Germany) as co-substrate are incubated in a total volume of 5 μl (50 mM HEPES, 4 mM Mg-chloride, 0.05% Pluronic F-68, 1.4 mM DTT, 0.5% DMSO, pH 7.7) in the absence or presence of the test compound (10 dilution concentrations) for 90 min at 30° C. The reaction is stopped by the addition of 1 μl 50 mM EDTA solution. 2 μl of the detection solution (1.6 μM SA-Xlent® (Cisbio, Codolet, France), 7.4 nM Anti-GST-K® (Eu-labelled anti-GST, Cisbio, Codolet, France) in 50 mM HEPES, 800 mM KF, 0.1% BSA, 20 mM EDTA, 0.1% CHAPS, pH 7.0) are added. After 1 h incubation at room temperature the HTRF is measured with an Envision multimode reader (Perkin Elmer LAS Germany GmbH) at excitation wavelength 340 nm (laser mode) and emission wavelengths 615 nm and 665 nm. The ratio of the emission signals is determined. The full value used is the inhibitor-free reaction. The pharmacological zero value used is XAV-939 (Tocris) in a final concentration of 5 μM. The inhibitory values (IC50) are determined using either the program Symyx Assay Explorer® or Condosseo® from GeneData.

[2] = target: T2, GST-tagged Tankyrase-2 (873-1166 aa) (Homo sapiens, UniProt Q9H2K2); assay: Tankyrase 2 autoparsylation assay (HTRF enzyme assay); type: biochemical
T2 construct: GST-tagged Tankyrase-2 (873-1166 aa)
Procedure: as §1, §2, §3

[3] = target: T3, His-tagged Parp-1 (Homo sapiens, UniProt P09874); assay: PARP-1 autoparsylation assay (HTRF); type: biochemical; conditions: PARP-1 autoparsylation HTRF assay
T3 construct: purchased Enzo Life Sciences GmbH
From the text: Description of the PARP1 Assay
Biochemical Activity Testing of PARP-1: Autoparsylation Assay
The autoparsylation assay is run in two steps: the enzymatic reaction in which
His-tagged Parp-1 transfers biotinylated ADP-ribose/ADP-ribose to itself from biotinylated NAD/NAD as co-substrate and the detection reaction where a time resolved FRET between cryptate labelled anti-His antibody bound to the His tag of the enzyme and Xlent® labelled-streptavidin bound the biotin-parsylation residue is analysed. The autoparsylation activity is detectable directly via the increase in HTRF signal.
The autoparsylation assay is performed as 384-well HTRF® (Cisbio, Codolet, France) assay format in Greiner low volume nb 384-well microtiter plates. 35 nM His-tagged Parp-1 (human, recombinant, Enzo Life Sciences GmbH, Lörrach, Germany) and a mixture of 125 nM bio-NAD (Biolog, Life science Inst., Bremen, Germany) and 800 nM NAD as co-substrate are incubated in a total volume of 6 μl (100 mM Tris/HCl, 4 mM Mg-chloride, 0.01% IGEPAL® CA630, 1 mM DTT, 0.5% DMSO, pH 8, 13 ng/μl activated DNA (BPS Bioscience, San Diego, US)) in the absence or presence of the test compound (10 dilution concentrations) for 150 min at 23° C. The reaction is stopped by the addition of 4 μl of the Stop/detection solution (70 nM SA-Xlent® (Cisbio, Codolet, France), 2.5 nM Anti-His-K® (Eu-labelled anti-His, Cisbio, Codolet, France) in 50 mM HEPES, 400 mM KF, 0.1% BSA, 20 mM EDTA, pH 7.0). After 1 h incubation at room temperature the HTRF is measured with an Envision multimode reader (Perkin Elmer LAS Germany GmbH) at excitation wavelength 340 nm (laser mode) and emission wavelengths 615 nm and 665 nm. The ratio of the emission signals is determined. The full value used is the inhibitor-free reaction. The pharmacological zero value used is Olaparib (LClabs, Woburn, US) in a final concentration of 1 μM. The inhibitory values (IC50) are determined using either the program Symyx Assay Explorer® or Condosseo® from GeneData.

[4] = system: tankyrase 1/2; assay: Cellular inhibition of Tankyrase: increase of Axin2 level in DLD1 cells (Luminex); type: cell-based; conditions: 24 hours, read-out: EC50 tankyrase 1/2 (cell assay)
Procedure: Measurement of Cellular Inhibition of Tankyrase
Since Tankyrases have been described to modulate cellular level of Axin2 (Huang et al., 2009; Nature) the increase of Axin2 level is used as read-out for determination of cellular inhibition of Tankyrases in a Luminex based assay.
Cells of the colon carcinoma cell line DLD1 are plated in 96 well plates with 1.5×10^4 cells per well. Next day, cells are treated with a serial dilution of test compound in seven steps as triplicates with a final DMSO concentration of 0.3%. After 24 hours, cells are lysed in lysis buffer (20 mM Tris/HCl pH 8.0, 150 mM NaCl, 1% NP40, 10% Glycerol) and lysates are cleared by centrifugation through a 96 well filter plate (0.65 μm). Axin2 protein is isolated from cell lysates by incubation with a monoclonal anti-Axin2 antibody (R&D Systems #MAB6078) that is bound to fluorescent carboxybeads. Then, bound Axin2 is specifically detected with a polyclonal anti-Axin2 antibody (Cell Signaling #2151) and an appropriate PE-fluorescent secondary antibody. The amount of isolated Axin2 protein is determined in a Luminex^200 machine (Luminex Corporation) according to the manufacturer's instruction by counting 100 events per well. Inhibition of Tankyrase by test compounds results in higher levels of Axin2 which directly correlates with an increase of detectable fluorescence. As controls cells are treated with solvent alone (neutral control) and with a Tankyrase reference inhibitor IWR-2 (3E-06 M) which refers as control for maximum increase of Axin2. For analysis, the obtained data are normalized against the untreated solvent control and fitted for determination of the EC50 values using the Assay Explorer software (Accelrys).

T1 sequence (O95271 1023-1327): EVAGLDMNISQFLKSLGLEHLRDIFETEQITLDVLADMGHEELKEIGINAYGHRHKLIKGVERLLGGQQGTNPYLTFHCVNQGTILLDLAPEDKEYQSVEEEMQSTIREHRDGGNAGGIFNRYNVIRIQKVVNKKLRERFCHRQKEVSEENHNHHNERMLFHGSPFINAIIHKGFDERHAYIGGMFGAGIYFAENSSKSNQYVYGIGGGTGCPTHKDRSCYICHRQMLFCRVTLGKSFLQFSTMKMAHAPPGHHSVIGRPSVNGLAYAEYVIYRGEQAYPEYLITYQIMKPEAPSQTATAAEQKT
T3 sequence (P09874 whole entry): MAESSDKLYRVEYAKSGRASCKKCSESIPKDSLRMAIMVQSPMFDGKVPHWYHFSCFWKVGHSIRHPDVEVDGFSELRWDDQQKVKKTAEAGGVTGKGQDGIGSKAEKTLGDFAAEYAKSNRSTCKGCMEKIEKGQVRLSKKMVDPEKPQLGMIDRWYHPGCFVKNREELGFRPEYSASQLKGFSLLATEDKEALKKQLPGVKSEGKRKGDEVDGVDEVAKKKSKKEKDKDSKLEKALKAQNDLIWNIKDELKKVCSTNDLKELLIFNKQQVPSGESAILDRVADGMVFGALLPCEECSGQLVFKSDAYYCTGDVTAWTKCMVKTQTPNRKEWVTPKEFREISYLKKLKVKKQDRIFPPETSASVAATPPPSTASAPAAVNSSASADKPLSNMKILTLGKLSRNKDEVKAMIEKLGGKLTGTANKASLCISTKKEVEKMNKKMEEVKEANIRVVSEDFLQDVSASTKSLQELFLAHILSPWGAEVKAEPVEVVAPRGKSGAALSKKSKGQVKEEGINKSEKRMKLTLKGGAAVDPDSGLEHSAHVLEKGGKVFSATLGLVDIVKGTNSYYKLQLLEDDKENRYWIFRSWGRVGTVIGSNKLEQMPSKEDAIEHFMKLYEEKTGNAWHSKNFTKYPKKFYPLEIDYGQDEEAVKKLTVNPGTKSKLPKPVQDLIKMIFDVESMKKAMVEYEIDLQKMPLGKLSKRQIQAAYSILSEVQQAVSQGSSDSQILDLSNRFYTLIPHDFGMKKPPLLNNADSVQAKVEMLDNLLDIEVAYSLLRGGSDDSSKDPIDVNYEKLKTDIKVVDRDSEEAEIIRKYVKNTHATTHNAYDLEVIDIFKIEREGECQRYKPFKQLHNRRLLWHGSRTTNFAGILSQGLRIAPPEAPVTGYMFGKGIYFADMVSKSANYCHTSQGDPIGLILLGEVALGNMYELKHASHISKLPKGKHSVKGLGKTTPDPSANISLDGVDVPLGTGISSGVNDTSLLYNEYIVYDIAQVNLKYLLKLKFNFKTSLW
T2 sequence (Q9H2K2 873-1166): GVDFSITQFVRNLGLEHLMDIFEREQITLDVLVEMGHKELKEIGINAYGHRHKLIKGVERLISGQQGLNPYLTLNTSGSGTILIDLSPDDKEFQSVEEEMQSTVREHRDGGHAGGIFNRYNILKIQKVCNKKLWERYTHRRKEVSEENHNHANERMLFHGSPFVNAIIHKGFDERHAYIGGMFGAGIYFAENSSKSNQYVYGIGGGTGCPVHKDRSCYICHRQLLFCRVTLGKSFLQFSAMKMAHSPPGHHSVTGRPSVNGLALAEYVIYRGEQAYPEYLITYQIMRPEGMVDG

IC50 [3] [µM]	Structure (SMILES)	IC50 [1] [nM]	IC50 [2] [nM]	EC50 [4] [nM]
0.3 to 3	O=c1[nH]c(-c2ccc(OCc3ccccc3)cc2)cn2cccc12 [Compound A1, 3-(4-benzyloxy-phenyl)-2H-pyrrolo[1,2-a]pyrazin-1-one]	< 300	300 to 3000	–
0.3 to 3	O=c1[nH]c(-c2cccc(Cl)c2)cn2cccc12 [Compound A3, 3-(3-chloro-phenyl)-2H-pyrrolo[1,2-a]pyrazin-1-one]	300 to 3000	300 to 3000	–
0.3 to 3	COc1cccc(-c2cn3cccc3c(=O)[nH]2)c1 [Compound A4, 3-(3-methoxy-phenyl)-2H-pyrrolo[1,2-a]pyrazin-1-one]	300 to 3000	300 to 3000	–
0.3 to 3	O=c1[nH]c(-c2ccc([N+](=O)[O-])cc2)cn2cccc12 [Compound A6, 3-(4-nitro-phenyl)-2H-pyrrolo[1,2-a]pyrazin-1-one]	< 300	< 300	–
3 to 50	COc1ccc(-c2cn3cccc3c(=O)[nH]2)cc1OC [Compound A8, 3-(3,4-dimethoxy-phenyl)-2H-pyrrolo[1,2-a]pyrazin-1-one]	300 to 3000	3000 to 50000	–
3 to 50	O=c1[nH]c(-c2ccc3c(c2)OCO3)cn2cccc12 [Compound A9, 3-benzo[1,3]dioxol-5-yl-2H-pyrrolo[1,2-a]pyrazin-1-one]	300 to 3000	300 to 3000	–
0.3 to 3	O=c1[nH]c(-c2ccc(F)cc2)cn2cccc12 [Compound A10, 3-(4-fluoro-phenyl)-2H-pyrrolo[1,2-a]pyrazin-1-one]	300 to 3000	300 to 3000	–
–	O=c1[nH]c(-c2ccc(C3CCNCC3)cc2)cn2cc(F)cc12 [Compound A77, 7-fluoro-3-(4-piperidin-4-yl-phenyl)-2H-pyrrolo[1,2-a]pyrazin-1-one]	< 300	300 to 3000	300 to 3000
–	CN1CCC(c2ccc(-c3cn4cc(Cl)cc4c(=O)[nH]3)cc2)CC1 [Compound A82, 7-chloro-3-[4-(1-methyl-piperidin-4-yl)-phenyl]-2H-pyrrolo[1,2-a]pyrazin-1-one]	< 300	300 to 3000	300 to 3000
–	O=c1[nH]c(-c2ccc(C3(O)CNC3)cc2)cn2cccc12 [Compound A86, 3-[4-(3-hydroxy-azetidin-3-yl)-phenyl]-2H-pyrrolo[1,2-a]pyrazin-1-one hydrochloride]	300 to 3000	300 to 3000	3000 to 50000
–	Cn1cc(-c2ccc(-c3cn4cc(F)cc4c(=O)[nH]3)cc2)cn1 [Compound A90]	< 300	300 to 3000	300 to 3000
–	Cc1cc2c(=O)[nH]c(-c3ccc(-c4cnn(C)c4)cc3)cn2c1 [Compound A91]	< 300	300 to 3000	300 to 3000
–	Cc1ccc2c(=O)[nH]c(-c3ccc(Br)cc3)cn12 [Compound A94]	< 300	300 to 3000	300 to 3000
–	O=c1[nH]c(-c2ccc(C3(O)CCNCC3)cc2)cn2cccc12 [Compound A99]	300 to 3000	300 to 3000	3000 to 50000

Structure (SMILES)	IC50 [3] [µM]	IC50 [1] [nM]	IC50 [2] [nM]	EC50 [4] [nM]
COc1ccc(-c2cn3cccc3c(=O)[nH]2)cc1 [Compound A7, 3-(4-methoxy-phenyl)-2H-pyrrolo[1,2-a]pyrazin-1-one]	0.3 to 3	< 300	300 to 3000	3000 to 50000
O=c1[nH]c(-c2ccc(C(F)(F)F)cc2)cn2cccc12 [Compound A13, 3-(4-trifluoromethyl-phenyl)-2H-pyrrolo[1,2-a]pyrazin-1-one]	0.3 to 3	300 to 3000	< 300	300 to 3000
